{"source": "patent US7361671B2", "about": "“Substituted heteroarylalkanoic acids” (The Institute for Pharmaceutical Discovery, Inc., priority 2001, dated 2008)", "key": {"[1]": {"target": "human aldose reductase (hALR2) (Homo sapiens, UniProt P15121)", "experiment": "inhibition of human aldose reductase (hALR2) activity, methods similar to Butera et al.", "format": "biochemical", "settings": "concentration to inhibit activity by 50%, read-out: hAR-#1 (aldose)", "protocol": "Representative compounds of the invention are tested for their potency, selectivity and efficacy as inhibitors of human aldose reductase. […] Using this assay, the concentrations required to inhibit human aldose reductase (hALR2) activity by 50% (IC50) are determined."}}}
{"compound": "Cc1sc(C)c(Cc2nc3c(F)c(F)cc(F)c3s2)c1CC(=O)O", "note": "[Example 18, [2,5-Dimethyl-4-(4,5,7-trifluoro-benzothiazol-2-ylmethyl)-thiophen-3-yl]-acetic acid]", "values": [{"measurement": "IC50", "setting": "[1]", "value": 36, "unit": "nM"}, {"measurement": "melting point", "value": "170 to 171", "unit": "°C"}]}
{"compound": "CCCc1nc(CCC)c(Cc2nc3c(F)c(F)cc(F)c3s2)cc1CC(=O)O.Cl", "note": "[Example 7, [2,6-Dipropyl-5-(4,5,7-trifluoro-benzothiazol-2-ylmethyl)-pyridin-3-yl]acetic acid hydrochloride]", "values": [{"measurement": "IC50", "setting": "[1]", "value": 7, "unit": "nM"}, {"measurement": "melting point", "value": "98 to 100", "unit": "°C"}]}
{"compound": "CCc1nc(CC)c(Cc2nc3c(F)c(F)cc(F)c3s2)cc1CC(=O)O.Cl", "note": "[Example 5, [2,6-Diethyl-5-(4,5,7-trifluoro-benzothiazol-2-ylmethyl)-pyridin-3-yl]acetic acid hydrochloride]", "values": [{"measurement": "IC50", "setting": "[1]", "value": 7, "unit": "nM"}, {"measurement": "melting point", "value": "143 to 145", "unit": "°C"}]}
{"compound": "Cc1nc(C)c(Cc2nc3c(F)c(F)cc(F)c3s2)cc1CC(=O)O.Cl", "note": "[Example 4, 2,6-Dimethyl-5-(4,5,7-trifluoro-benzothiazole-2-ylmethyl)-pyridin-3-yl-acetic acid hydrochloride]", "values": [{"measurement": "IC50", "setting": "[1]", "value": 4, "unit": "nM"}, {"measurement": "melting point", "value": "211 °C (dec.)"}]}
{"compound": "O=C(O)Cc1ccc(Cc2nc3c(F)c(F)cc(F)c3s2)s1", "note": "[Example 19, [5-(4,5,7-trifluoro-benzothiazol-2-ylmethyl)-thiophen-2-yl]-acetic acid]", "values": [{"measurement": "IC50", "setting": "[1]", "value": 27, "unit": "nM"}, {"measurement": "melting point", "value": "132 to 133", "unit": "°C"}]}
